Measurements as given in patent US20260265233A1, “BENZOTHIOPHENE DERIVATIVES AS RXFP1 AGONISTS” (BRISTOL-MYERS SQUIBB COMPANY, priority 2021, published 2026).

Target: T1, human RXFP1 (Homo sapiens, UniProt Q9HBX9)
T1 construct: expressed in transfected cells
T1 sequence (Q9HBX9 1-757): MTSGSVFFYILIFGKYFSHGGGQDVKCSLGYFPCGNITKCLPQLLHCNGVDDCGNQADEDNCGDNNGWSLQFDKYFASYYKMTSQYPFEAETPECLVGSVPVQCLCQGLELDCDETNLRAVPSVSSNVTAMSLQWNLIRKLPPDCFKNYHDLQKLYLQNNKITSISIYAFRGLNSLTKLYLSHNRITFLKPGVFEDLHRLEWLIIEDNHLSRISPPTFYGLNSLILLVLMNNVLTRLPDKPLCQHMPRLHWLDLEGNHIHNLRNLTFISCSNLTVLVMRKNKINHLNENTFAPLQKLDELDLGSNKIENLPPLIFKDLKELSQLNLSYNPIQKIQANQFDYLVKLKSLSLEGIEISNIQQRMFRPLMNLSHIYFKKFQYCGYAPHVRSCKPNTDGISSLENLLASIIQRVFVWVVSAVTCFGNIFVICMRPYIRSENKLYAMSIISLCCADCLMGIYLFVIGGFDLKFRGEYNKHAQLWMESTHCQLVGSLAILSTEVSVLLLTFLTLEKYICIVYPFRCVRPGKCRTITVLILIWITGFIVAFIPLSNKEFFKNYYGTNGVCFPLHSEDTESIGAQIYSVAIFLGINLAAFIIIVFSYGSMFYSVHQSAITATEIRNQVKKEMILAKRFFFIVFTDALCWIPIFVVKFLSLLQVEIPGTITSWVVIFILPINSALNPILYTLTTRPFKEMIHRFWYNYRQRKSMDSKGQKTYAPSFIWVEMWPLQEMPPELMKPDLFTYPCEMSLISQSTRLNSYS
Assay: hRXFP1 HEK293 cAMP assay (HTRF)
Format: cell-based
Conditions: HEK293 cells stably expressing human RXFP1; 30 min at rt; intracellular cAMP by HTRF
Outline: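 HEK293 cells stably expressing human RXFP1 treated 30 min at rt with compound (0.010 nM to 50 μM, 2% DMSO) in HBSS/HEPES buffer with 0.5 mM IBMX. Intracellular cAMP measured by HTRF (665/590 nm ratio) against a cAMP standard curve; potency fitted by 4-parameter logistic.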

| Compound | EC50 |
| --- | --- |
| COc1ccc(C2CCCN(C(C)C)CC2)cc1C(=O)Nc1c(C(=O)Nc2ccc(F)c(C(F)(F)F)c2)sc2cc(C(F)(F)F)ccc12 (centres unmarked) [Example 213, N-(4-fluoro-3-(trifluoromethyl)phenyl)-3-(5-(1-isopropylazepan-4-yl)-2-methoxy-benzamido)-6-(trifluoromethyl) benzo[b] thiophene-2-carboxamide] | 3360 nM |
| COc1ccc(C(=O)NCC2(S(C)(=O)=O)CC2)cc1C(=O)Nc1c(C(=O)Nc2ccc(F)c(C(F)(F)F)c2)sc2cc(Cl)ncc12 [Example 196, N3-(6-chloro-2-((4-fluoro-3-(trifluoromethyl)phenyl)carbamoyl)thieno[3,2-c]pyridin-3-yl)-4-methoxy-N1-((1-(methylsulfonyl)cyclopropyl)methyl) isophthalamide] | 70 nM |
| COc1ccc(C2CCCN(CCO)CC2)cc1C(=O)Nc1c(C(=O)Nc2ccc(F)c(C(F)(F)F)c2)sc2cc(C(F)(F)F)ccc12 (single isomer, unassigned) [Example 69, N-(4-fluoro-3-(trifluoromethyl)phenyl)-3-(5-(1-(2-hydroxyethyl)azepan-4-yl)-2-methoxy-benzamido)-6-(trifluoromethyl) benzo[b] thiophene-2-carboxamide] | 760 nM |
| COc1ccc(C2=NCC3(CCCCC3)O2)cc1C(=O)Nc1c(C(=O)Nc2ccc(F)c(C(F)(F)F)c2)sc2cc(C(F)(F)F)ccc12 [Example 58, N-(4-fluoro-3-(trifluoromethyl)phenyl)-3-(2-methoxy-5-(1-oxa-3-azaspiro[4.5]dec-2-en-2-yl)benzamido)-6-(trifluoromethyl)benzo[b]thiophene-2-carboxamide] | 612 nM |
| COc1ccc(C2CCN(CC(N)=O)C2)cc1C(=O)Nc1c(C(=O)Nc2ccc(F)c(C(F)(F)F)c2)sc2cc(C(F)(F)F)ccc12 (centres unmarked) [Example 156, 3-(5-(1-(2-amino-2-oxoethyl)pyrrolidin-3-yl)-2-methoxy-benzamido)-N-(4-fluoro-3-(trifluoromethyl)phenyl)-6-(trifluoromethyl) benzo[b] thiophene-2-carboxamide] | 2180 nM |
| O=C(Nc1c(C(=O)Nc2ccc(F)c(C(F)(F)F)c2)sc2cc(C(F)(F)F)ccc12)c1cc(C2=NOC3COCC23)ccc1F (centres unmarked) [Example 256, 3-(5-{3aH,4H,6H,6aH-furo[3,4-d][1,2]oxazol-3-yl}-2-fluorobenzamido)-N-[4-fluoro-3-(trifluoromethyl)phenyl]-6-(trifluoromethyl)-1-benzothiophene-2-carboxamide] | 239 nM |
| COc1ccc(N2CCCC(C(=O)NC3COC3)C2)cc1C(=O)Nc1c(C(=O)Nc2ccc(F)c(C(F)(F)F)c2)sc2cc(C(F)(F)F)ccc12 (single isomer, unassigned) [Example 229, 1-(3-((2-((4-fluoro-3-(trifluoromethyl)phenyl)carbamoyl)-6-(trifluoromethyl)benzo [b]thiophen-3-yl)carbamoyl)-4-methoxyphenyl)-N-(oxetan-3-yl)piperidine-3-carboxamide] | 2570 nM |
| COc1ccc(N2CCCC(CC(=O)O)C2)cc1C(=O)Nc1c(C(=O)Nc2ccc(F)c(C(F)(F)F)c2)sc2cc(C(F)(F)F)ccc12 (single isomer, unassigned) [Example 64, 2-(1-(3-((2-((4-fluoro-3-(trifluoromethyl)phenyl)carbamoyl)-6-(trifluoromethyl)benzo[b]thiophen-3-yl)carbamoyl)-4-methoxyphenyl)piperidin-3-yl)acetic acid] | 293 nM |
| COc1ccc(N2CCCC(C(=O)NC3COC3)C2)cc1C(=O)Nc1c(C(=O)Nc2ccc(F)c(C(F)(F)F)c2)sc2cc(C(F)(F)F)ccc12 (single isomer, unassigned) [Example 188, 1-(3-((2-((4-fluoro-3-(trifluoromethyl)phenyl)carbamoyl)-6-(trifluoromethyl)benzo[b]thiophen-3-yl)carbamoyl)-4-methoxyphenyl)-N-(oxetan-3-yl)piperidine-3-carboxamide] | 772 nM |
| COc1ccc(C(=O)NCCCO)cc1C(=O)Nc1c(C(=O)Nc2ccc(F)c(C(F)(F)F)c2)sc2cc(C(F)(F)F)ccc12 [Example 216, N3-(2-((4-fluoro-3-(trifluoromethyl)phenyl)carbamoyl)-6-(trifluoromethyl)benzo[b]thiophen-3-yl)-N1-(3-hydroxypropyl)-4-methoxy-isophthalamide] | 3490 nM |
| COc1ccc(-c2noc(C(C)(C)CO)n2)cc1C(=O)Nc1c(C(=O)Nc2ccc(F)c(C(F)(F)F)c2)sc2cc(C(F)(F)F)ccc12 [Example 274, N-(4-fluoro-3-(trifluoromethyl)phenyl)-3-(5-(5-(1-hydroxy-2-methylpropan-2-yl)-1,2,4-oxadiazol-3-yl)-2-methoxy-benzamido)-6-(trifluoromethyl) benzo[b] thiophene-2-carboxamide] | 278 nM |
| 2-(3′-((2-((4-fluoro-3-(trifluoromethyl) phenyl) carbamoyl)-6-(trifluoromethyl) benzo[b]thiophen-3-yl) carbamoyl)-4′-methoxy-[1, 1′-biphenyl]-3-yl)-2-(tetrahydro-2H-pyran-4-carboxamido) acetic acid [Example 26] | 153 nM |
| COc1ccc(C2CCC(C)(O)CC2)cc1C(=O)Nc1c(C(=O)Nc2ccc(F)c(C(F)(F)F)c2)sc2cc(C(F)(F)F)ccc12 (single isomer, unassigned) [Example 37, N-(4-fluoro-3-(trifluoromethyl)phenyl)-3-(5-(4-hydroxy-4-methylcyclohexyl)-2-methoxybenzamido)-6-(trifluoromethyl)benzo[b]thiophene-2-carboxamide] | 158 nM |

Second part, the compound after the results:

| EC50 | Compound |
| --- | --- |
| 364 nM | COc1ccc(C2=NOC3CC(N)CC23)cc1C(=O)Nc1c(C(=O)Nc2ccc(F)c(C(F)(F)F)c2)sc2cc(C(F)(F)F)ccc12 (single isomer, unassigned) [Example 259, 3-(5-{5-amino-3aH,4H,5H,6H, 6aH-cyclopenta[d] [1,2]oxazol-3-yl}-2-methoxy-benzamido)-N-[4-fluoro-3-(trifluoromethyl)phenyl]-6-(trifluoromethyl)-1-benzothiophene-2-carboxamide] |
| 237 nM | COc1ccc(-c2cc(C(=O)O)ccc2F)cc1C(=O)Nc1c(C(=O)Nc2ccc(F)c(C(F)(F)F)c2)sc2cc(C(F)(F)F)ccc12 [Example 128, 6-fluoro-3′-((2-((4-fluoro-3-(trifluoromethyl)phenyl)carbamoyl)-6-(trifluoromethyl)benzo[b]thiophen-3-yl)carbamoyl)-4′-methoxy-[1,1′-biphenyl]-3-carboxylic acid] |
| 1390 nM | COc1ccc(CNCC(C)(C)O)cc1C(=O)Nc1c(C(=O)Nc2ccc(F)c(C(F)(F)F)c2)sc2cc(C(F)(F)F)ccc12 [Example 236, N-(4-fluoro-3-(trifluoromethyl)phenyl)-3-(5-(((2-hydroxy-2-methylpropyl)amino)methyl)-2-methoxy-benzamido)-6-(trifluoromethyl) benzo[b] thiophene-2-carboxamide] |
| 150 nM | COc1ccc(N2CCCC(C(=O)O)C2)cc1C(=O)Nc1c(C(=O)Nc2ccc(F)c(C(F)(F)F)c2)sc2cc(C(F)(F)F)ccc12 (single isomer, unassigned) [Example 5, 1-(3-((2-((4-fluoro-3-(trifluoromethyl)phenyl)carbamoyl)-6-(trifluoromethyl)benzo[b]thiophen-3-yl)carbamoyl)-4-methoxyphenyl) piperidine-3-carboxylic acid] |
| 1680 nM | COc1ccc(N2CCCC(C(=O)NCCO)C2)cc1C(=O)Nc1c(C(=O)Nc2ccc(F)c(C(F)(F)F)c2)sc2cc(C(F)(F)F)ccc12 (single isomer, unassigned) [Example 231, 1-(3-((2-((4-fluoro-3-(trifluoromethyl)phenyl)carbamoyl)-6-(trifluoromethyl)benzo[b]thiophen-3-yl)carbamoyl)-4-methoxyphenyl)-N-(2-hydroxyethyl) piperidine-3-carboxamide] |
| 1610 nM | COc1ccc(C(=O)N2CCC3(CC2)COC3)cc1C(=O)Nc1c(C(=O)Nc2ccc(F)c(C(F)(F)F)c2)sc2cc(C(F)(F)F)ccc12 [Example 222, N-(4-fluoro-3-(trifluoromethyl)phenyl)-3-(2-methoxy-5-(2-oxa-7-azaspiro[3.5]nonane-7-carbonyl)benzamido)-6-(trifluoromethyl) benzo[b] thiophene-2-carboxamide] |
| 902 nM | COc1ccc(C2CCN(CC(N)=O)C2)cc1C(=O)Nc1c(C(=O)Nc2ccc(F)c(C(F)(F)F)c2)sc2cc(C(F)(F)F)ccc12 (centres unmarked) [Example 155, 3-{5-[1-(carbamoyl-methyl)pyrrolidin-3-yl]-2-methoxy-benzamido}-N-[4-fluoro-3-(trifluoromethyl)phenyl]-6-(trifluoromethyl)-1-benzothiophene-2-carboxamide] |
